Results published in US20230103444A1 (The Regents of the University of Colorado, a Body Corporate, priority 2020, published 2023).
Read-outs that look alike come from different tables or passages of the source. Each block holds one compound with its values, some of them ahead of it.

Key:
[1] = tested on: SW620 tumor organoids; experiment: Tumor organoid cytotoxicity (CellTiter-Glo 3D); settings: Homo sapiens
[2] = tested on: CRC102 patient-derived tumor organoids; experiment: Patient tumor organoid cytotoxicity; type: cell-based; settings: Homo sapiens; single agent, Table 4A
Method: Patient Cell Tumor Organoid Culture. CRC048 and CRC102 patient cell samples were expanded and cultured as PDTOs using reported methodologies and reagents. (Drost et al., 2016; Sato et al., 2011) Briefly, patient cells were washed with PBS, digested with TrypLE, and filtered through 100 μm cell strainer before used in 3D cell culture. Patient cells were seeded at 5,000 cells per well in 96-well plates, coated with 2% Matrigel, and allowed to self-assemble as PDTOs over 72 h.
(§1) Tumor Organoid Cytotoxicity.

[3] = Mouse liver microsome stability; settings: CD-1, mouse, liver microsomes, pH 7.4, Microsomal stability Mouse t1/2 (min), Table 6
Method: Microsome stability. CD-1 mouse microsomes were commercially purchased and the reactions were performed as previously described. […] The master mix was pre-incubated at 37° C. for 5 min, then 1 mM NADPH was added to start the microsomal activity reaction and maintained at 37° C. throughout the time course. Reactions were stopped at 0, 5, 15, 30, 45, and 60 min by adding 200 μL acetonitrile and analyzed by mass spectrometry. The appropriate microsome controls were also performed in the same reaction conditions.

[4] = tested on: HCT116 tumor organoids; experiment: Tumor organoid cytotoxicity (CellTiter-Glo 3D); type: cell-based, human; settings: Homo sapiens
Method: (§2) Cell based cytotoxicity dose response and combination studies. […] Plates were then incubated for 3 days before treatment.
Cell Line Tumor Organoid Culture.
as §1

[5] = Human microsomal stability; type: in vitro ADME; settings: human microsomes, Table 6, read-out: Microsomal stability Human t1/2
[6] = tested on: SW620 tumor xenografts
Method: In vivo studies. […] Body weight and tumor volumes were monitored 2×/week. […] In addition, irinotecan was administered i.p. at 50 mg/kg.

[7] = tested on: SW620 tumor organoids; experiment: Synergy studies with SN38 (LOEWE synergy scores); type: cell-based, human; set-up: key to LOEWE Synergy Score: % response beyond expectation; <-10 antagonism, -10–10 additive, >10 synergy; settings: for LOEWE Synergy Score: compound at its IC50 (6: 5 μM; 6.3, 6.11: 3 μM)
Method: as §2
(e.g., synergy score 20 corresponds to 20% of response beyond expectation). According to our experience, the synergy scores near 0 gives limited confidence on synergy or antagonism.
When the synergy score is: • Less than −10: the interaction between two drugs is likely to be antagonism; • From −10 to 10: the interaction between two drugs is likely to be additivity; • Larger than 10: the interaction between two drugs is likely to be synergy.

[8] = tested on: SW620 quasi-mesenchymal (GFP+) tumor xenografts; experiment: Antitumor activity by oral gavage against SW620 quasi-mesenchymal (GFP+) xenografts; type: in vivo, athymic nude mice
Method: (Esquer et al., 2021) Five days after cell injection, injected mice were randomized into three groups for treatment (Tx). Group 1 (12 mice) received control treatment of gavage vehicle (10% DMSO, 90% PEG 400 (polyethylene glycol 400) by volume). […] Mice were treated once a day, 5 days a week PO (via oral gavage). Mice were weighed and tumor volume assessed twice a week by caliper measurement as illustrated in FIGS. 21A and 21B. At sacrifice, tumors were weighed and measured. In addition, gross observations on condition of mice were made and samples of plasma, tumors, liver spleen and kidneys were collected for further assessment, e.g., drug quantification and toxicity assessment.

[9] = Pharmacokinetics in CD-1 mice; settings: oral gavage (p.o.) 50 mg/kg
Method: Whole blood was harvested at specific time points and the separated plasma frozen at −80° C. for storage or used for LC-MS/MS analysis.

[10] = tested on: CRC042 patient-derived tumor organoids; experiment: Patient tumor organoid cytotoxicity; type: cell-based; settings: Homo sapiens; single agent, Table 4A
[11] = tested on: SW620 tumor organoids
[12] = combination of 6.11 and irinotecan

Structure (SMILES): Cc1cc(Nc2ccc(NC(=O)Cc3cc(Br)cs3)cc2)nc(N2CCCC2)n1 [Compound 6.11, 2-(4-bromothiophen-2-yl)-N-(4-((6-methyl-2-(pyrrolidin-1-yl)pyrimidin-4-yl)amino)phenyl)-acetamide]
IC50 ([1]; SW-620, 72 h, read-out: 3 D Cytotoxicity 72 hr IC50 (μM) SW620): 2.6 µM
IC50 ([1]; SW-620, read-out: IC50 of cytotoxicity in SW620 cells): < 10 µM
IC50 ([1]; SW-620, read-out: Tumor Organoid Cytotoxicity IC50 (μM) SW620): 2.6 µM
IC50 [2]: 8.38 µM
half-life at 10 μM [3]: 0.954 h
IC50 ([4]; HCT-116, 72 h, Table 6, read-out: 3 D Cytotoxicity 72 hr IC50 (μM) HCT116): 3.5 µM
IC50 ([4]; HCT-116, single agent, Table 4A, read-out: Tumor Organoid Cytotoxicity IC50 (μM) HCT116): 3.48 µM
half-life [5]: 4.38 h
tumor volume, combination with irinotecan ([6]; 6.11 1×/day + irinotecan 50 mg/kg i.p., up to 20 days, M-phenotype xenografts, vs irinotecan alone or control): significantly inhibits colorectal cancer SW620 tumor xenografts
tumor volume after the last treatment, combination with irinotecan ([6]; 6.11 + irinotecan vs irinotecan alone, last treatment day 33): significantly inhibits colorectal SW620 tumors beyond the last treatment
survival of tumor-bearing mice, combination with irinotecan ([6]; 6.11 + irinotecan, compared to irinotecan alone and control): significantly increases the survival
difference in tumor volume, irinotecan alone vs combination, 8 days post treatment [6, 12]: 3.4 fold
drop of tumor volume post treatment [6, 12]: ~1.5 fold
LOEWE Synergy Score ([7]; SN38 0.64 nM): 46
LOEWE Synergy Score ([7]; SN38 16 nM): 52
LOEWE Synergy Score ([7]; SN38 80 nM): 49
LOEWE Synergy Score ([7]; SN38 400 nM): 48
LOEWE Synergy Score ([7]; SN38 2000 nM): 36
LOEWE Synergy Score ([7]; SN38 10000 nM): 25
LOEWE Synergy Score ([7]; SN38 […]): 54
synergism with irinotecan (and SN38), in words ([7]; killing SW620 tumor organoids): synergism
mouse body weight ([8]; oral gavage 75 and 125 mg/kg vs vehicle): no significant difference in body weight
tumor volume ([8]; oral gavage 75 and 125 mg/kg, once a day 5 days a week, 27 days): significant dose dependent decrease in tumor volume
oral bioavailability, uptake in the plasma [9]: 44%
IC50 [10]: 4.5 µM

IC50 [11]: > 30 µM
Structure (SMILES): Cc1cc(Nc2ccc(NC(=O)Cn3cnc4ccccc43)cc2)nc(N2CCCC2)n1 [Compound 6.28, 2-(1H-benzo[d]imidazole-1-yl)-N-(4-((6-methyl-2-(pyrrolidin-1-yl)pyrimidin-4-yl)amino)phenyl) acetamide]
